Biological target: Cruzipain (Trypanosoma cruzi, UniProt P25779)
Test: Inhibition of cruzain, the major cysteine protease from Trypanosoma cruzi

Sequence of Cruzipain (P25779 whole entry): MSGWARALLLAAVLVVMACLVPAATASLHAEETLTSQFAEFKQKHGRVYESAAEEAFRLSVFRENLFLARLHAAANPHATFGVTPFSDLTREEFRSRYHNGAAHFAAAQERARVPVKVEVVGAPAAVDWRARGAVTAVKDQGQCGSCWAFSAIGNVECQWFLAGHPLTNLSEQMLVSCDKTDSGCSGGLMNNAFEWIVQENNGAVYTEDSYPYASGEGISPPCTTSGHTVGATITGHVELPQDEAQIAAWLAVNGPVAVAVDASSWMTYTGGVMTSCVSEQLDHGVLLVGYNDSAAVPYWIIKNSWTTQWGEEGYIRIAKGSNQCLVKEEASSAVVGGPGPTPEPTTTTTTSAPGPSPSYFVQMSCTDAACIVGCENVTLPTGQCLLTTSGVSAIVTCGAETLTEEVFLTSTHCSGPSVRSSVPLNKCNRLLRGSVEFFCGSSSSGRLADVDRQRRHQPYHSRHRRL

**Q.** Which IC50 does the source give for `COc1ccc(C(=O)N/N=C/c2ccoc2)c(OC)c1` here?
**A.** 166 µM

**Q.** Which IC50 does the source give for `O=C(N/N=C/c1ccc(-c2ccccc2[N+](=O)[O-])o1)c1ccccc1O` here?
**A.** 20 µM

**Q.** For `CN(C)c1ccc(/C=N/NC(=O)c2ccnc3ccccc23)c2ccccc12`, which IC50 is on record?
**A.** 6.03 µM

**Q.** How did the IC50 turn out when `O=C(N/N=C/c1ccnc2ccccc12)c1ccccc1O` was run?
**A.** 30.2 µM

**Q.** `O=C(N/N=C/c1ccc(C(=O)O)o1)c1cccc([N+](=O)[O-])c1` was tested. Which IC50 did it give?
**A.** 331 µM

**Q.** For `O=C(N/N=C/c1ccc(-c2ccc(Cl)cc2)o1)c1ccccc1O`, which IC50 is on record?
**A.** 100 µM

**Q.** With `O=C(N/N=C/c1ccc([N+](=O)[O-])o1)c1cc2ccccc2cc1O` as the compound, how does the IC50 read?
**A.** 6.03 µM

**Q.** `O=C(N/N=C/c1ccc(-c2ccccc2Cl)o1)c1cc2ccccc2cc1O` was tested. Which IC50 did it give?
**A.** 0.603 µM

**Q.** How did the IC50 turn out when `COc1ccc2cc(O)c(C(=O)N/N=C/c3ccc(-c4cc(C(F)(F)F)nn4C)s3)cc2c1` was run?
**A.** 0.2 µM

**Q.** How did the IC50 turn out when `O=C(N/N=C/c1ccc(-c2cccc([N+](=O)[O-])c2)o1)c1ccc2ccccc2c1` was run?
**A.** 6.03 µM

**Q.** Which IC50 does the source give for `CN(C)c1ccc(/C=N/NC(=O)c2ccc(O)c(O)c2)c2ccccc12` here?
**A.** 16.2 µM

**Q.** For `CN(C)c1ccc(/C=N/NC(=O)c2ccccc2)c2ccccc12`, which IC50 is on record?
**A.** 0.501 µM

**Q.** How did the IC50 turn out when `COc1cc(OC)cc(C(=O)N/N=C/c2ccc(C(=O)O)o2)c1` was run?
**A.** 10 µM

**Q.** For `CSc1ccc(/C=N/NC(=O)c2cccc(C)c2O)s1`, which IC50 is on record?
**A.** 10 µM

**Q.** For `O=C(N/N=C/c1cc(Br)cs1)c1cnc2ccccc2c1`, which IC50 is on record?
**A.** 30.2 µM

**Q.** For `O=C(N/N=C/c1ccc([N+](=O)[O-])o1)c1cccc([N+](=O)[O-])c1`, which IC50 is on record?
**A.** 5.01 µM

— ChEMBL document CHEMBL1135945, “CoMFA and HQSAR of acylhydrazide cruzain inhibitors” (Bioorg Med Chem Lett, 2002)
